Measured values reported in ChEMBL document CHEMBL3763029, “Heptapeptide ligands against receptor-binding sites of influenza hemagglutinin toward anti-influenza therapy” (Bioorg Med Chem, 2016).
Calls of active or inactive are those of the source. The rule behind the calls is not given here. Peptide text beside a SMILES is read from it. * marks the point of attachment. Biotinyl(3aR,4S,6aS) = O=C1N[C@H]2[C@H](CCCCC(=O)*)SC[C@H]2N1; Biotin = O=C1N[C@H]2[C@H](CS[C@H]2CCCCC(=O)*)N1; Stearoyl = CCCCCCCCCCCCCCCCCC(=O)*

How the values were obtained:
[1] = system: Influenza A virus (A/Wyoming/03/2003(H3N2)); assay: (§1) Binding affinity to Influenza A virus (A/Wyoming/03/2003(H3N2)) H3 hemagglutinin after 2 hrs by avidin-biotin-peroxidase complex method
[2] = system: Influenza A virus (A/Wyoming/03/2003(H3N2)); assay: Binding affinity to Influenza A virus (A/Wyoming/03/2003(H3N2)) H3 hemagglutinin after 2 hrs by avidin-biotin-peroxidase complex method in presence of glucose
[3] = system: Influenza A virus (A/Wyoming/03/2003(H3N2)); assay: Binding affinity to Influenza A virus (A/Wyoming/03/2003(H3N2)) H3 hemagglutinin after 2 hrs by avidin-biotin-peroxidase complex method in presence of Neu5Ac
[4] = as §1
[5] = system: Influenza A virus (A/New Caledonia/20/1999(H1N1)); assay: (§2) Binding affinity to Influenza A virus (A/New Caledonia/20/99 (H1N1)) H1 hemagglutinin after 2 hrs by avidin-biotin-peroxidase complex method
[6] = as §2; parameters: species or system Influenza A virus (A/New Caledonia/20/1999(H1N1))
[7] = system: Influenza A virus (A/Wyoming/03/2003(H3N2)); assay: Binding affinity to Influenza A virus (A/Wyoming/03/2003(H3N2)) H3 hemagglutinin at 200 uM after 2 hrs by avidin-biotin-peroxidase complex method in presence of Neu5Ac
[8] = Binding affinity to Influenza A virus (A/Aichi/2/68(H3N2)) H3 hemagglutinin after 2 hrs by NMR method; parameters: species or system Influenza A virus (A/Aichi/2/1968(H3N2))
[9] = system: Influenza A virus (A/Wyoming/03/2003(H3N2)); assay: Binding affinity to Influenza A virus (A/Wyoming/03/2003(H3N2)) H3 hemagglutinin at 400 uM after 2 hrs by avidin-biotin-peroxidase complex method relative to 7-1 peptide
Influenza A virus = assay: Antiviral activity against Influenza A virus (A/Puerto Rico/8/34(H1N1)) infected in MDCK cells assessed as inhibition of plaque formation pretreated with virus for 30 mins followed by host cell infection for 30 mins measured after 2 days by crystal violet staining assay; type: functional, organism-based; details: A/Puerto Rico/8/1934(H1N1)
H3N2 subtype = assay: Antiviral activity against Influenza A virus (A/Aichi/2/68(H3N2)) infected in MDCK cells assessed as inhibition of plaque formation pretreated with virus for 30 mins followed by host cell infection for 30 mins measured after 2 days by crystal violet staining assay; type: functional, organism-based; details: A/Aichi/2/1968(H3N2)

For `CC(C)C[C@H](NC(=O)[C@H](CC(=O)O)NC(=O)[C@H](CC(C)C)NC(=O)[C@@H]1CCCN1C(=O)[C@H](CCCNC(=N)N)NC(=O)[C@@H](NC(=O)[C@@H](N)CC(C)C)C(C)C)C(=O)N[C@@H](CCCCNC(=O)CCCC[C@@H]1SC[C@H]2NC(=O)N[C@@H]12)C(N)=O` (H-LVRPLDLK(Biotinyl(3aR,4S,6aS))-NH2), the Activity [1] was “Active”.

For `CC(C)C[C@H](NC(=O)[C@H](C)NC(=O)[C@H](CC(C)C)NC(=O)[C@H](Cc1cnc[nH]1)NC(=O)[C@H](CCCNC(=N)N)NC(=O)[C@@H](NC(=O)[C@@H](N)CC(C)C)C(C)C)C(=O)N[C@@H](CCCCNC(=O)CCCC[C@@H]1SC[C@H]2NC(=O)N[C@@H]12)C(N)=O` (H-LVRHLALK(Biotinyl(3aR,4S,6aS))-NH2), the Activity [1] was “Active”.

In the case of `CC(C)C[C@H](NC(=O)[C@H](C)NC(=O)[C@H](C)NC(=O)[C@@H]1CCCN1C(=O)[C@H](CCCNC(=N)N)NC(=O)[C@@H](NC(=O)[C@@H](N)CC(C)C)C(C)C)C(=O)N[C@@H](CCCCNC(=O)CCCC[C@@H]1SC[C@H]2NC(=O)N[C@@H]12)C(N)=O` (H-LVRPAALK(Biotinyl(3aR,4S,6aS))-NH2), the Activity [2] is reported as “Active” and the Activity [3] is reported as “inactive”.

With `CC(C)C[C@H](NC(=O)[C@H](C)NC(=O)[C@H](Cc1c[nH]c2ccccc12)NC(=O)[C@@H]1CCCN1C(=O)[C@H](CCCNC(=N)N)NC(=O)[C@@H](NC(=O)[C@@H](N)CC(C)C)C(C)C)C(=O)N[C@@H](CCCCNC(=O)CCCC[C@@H]1SC[C@H]2NC(=O)N[C@@H]12)C(N)=O` (H-LVRPWALK(Biotinyl(3aR,4S,6aS))-NH2) the Activity [1] was “Active”.

In the case of `CC(C)C[C@H](NC(=O)[C@H](C)NC(=O)[C@H](CC(C)C)NC(=O)[C@@H]1CCCN1C(=O)[C@H](CCCNC(=N)N)NC(=O)[C@@H](NC(=O)[C@@H](N)CC(=O)O)C(C)C)C(=O)N[C@@H](CCCCNC(=O)CCCC[C@@H]1SC[C@H]2NC(=O)N[C@@H]12)C(N)=O` (H-DVRPLALK(Biotinyl(3aR,4S,6aS))-NH2), the Activity [1] is reported as “Active”.

For `CC(C)C[C@H](NC(=O)[C@H](C)NC(=O)[C@H](CC(C)C)NC(=O)[C@@H]1CCCN1C(=O)[C@H](CCCNC(=N)N)NC(=O)[C@@H](NC(=O)[C@@H](N)CC(C)C)C(C)C)C(=O)N[C@@H](CCCCNC(=O)CCCC[C@@H]1SC[C@@H]2NC(=O)N[C@@H]21)C(N)=O` (H-LVRPLALK(Biotin)-NH2), the Kd [4] was 194 µM, the Activity [1] was “Dose-dependent effect” and the Activity [5] was “Dose-dependent effect”. For the same molecule, the Kd [6] was 92 µM and the Activity [7] was “inactive”.

In the case of `CC(C)C[C@H](NC(=O)[C@H](C)NC(=O)[C@H](CC(C)C)NC(=O)[C@@H]1CCCN1C(=O)[C@H](C)NC(=O)[C@@H](NC(=O)[C@@H](N)CC(C)C)C(C)C)C(=O)N[C@@H](CCCCNC(=O)CCCC[C@@H]1SC[C@H]2NC(=O)N[C@@H]12)C(N)=O` (H-LVAPLALK(Biotinyl(3aR,4S,6aS))-NH2), the Activity [1] is reported as “inactive”.

With `CC(C)C[C@H](NC(=O)[C@H](C)NC(=O)[C@H](CC(C)C)NC(=O)[C@@H]1CCCN1C(=O)[C@H](CCCNC(=N)N)NC(=O)[C@@H](NC(=O)[C@H](C)N)C(C)C)C(=O)N[C@@H](CCCCNC(=O)CCCC[C@@H]1SC[C@H]2NC(=O)N[C@@H]12)C(N)=O` (H-AVRPLALK(Biotinyl(3aR,4S,6aS))-NH2) the Activity [2] was “Active” and the Activity [3] was “inactive”.

In the case of `CC(=O)N[C@H]1[C@H]([C@H](O)[C@H](O)CO)O[C@@](OC[C@H]2O[C@@H](O[C@H]3[C@H](O)[C@@H](O)[C@H](O)O[C@@H]3CO)[C@H](O)[C@@H](O)[C@H]2O)(C(=O)O)C[C@@H]1O`, the Kd [8] is reported as 2100 µM, the Kd [4] is reported as > 500 µM and the Kd [6] is reported as > 500 µM.

In the case of `CC(C)C[C@H](NC(=O)CNC(=O)[C@H](CCCNC(=N)N)NC(=O)[C@@H](NC(=O)[C@@H](N)CC(C)C)C(C)C)C(=O)N[C@@H](C)C(=O)N[C@@H](CC(C)C)C(=O)N[C@@H](CCCCNC(=O)CCCC[C@@H]1SC[C@H]2NC(=O)N[C@@H]12)C(N)=O` (H-LVRGLALK(Biotinyl(3aR,4S,6aS))-NH2), the Activity [9] is reported as 17%.

For `CCCCCCCCCCCCCCCCCC(=O)N[C@@H](CC(C)C)C(=O)N[C@H](C(=O)N[C@@H](CCCNC(=N)N)C(=O)N1CCC[C@H]1C(=O)N[C@@H](CC(C)C)C(=O)N[C@@H](C)C(=O)N[C@@H](CC(C)C)C(N)=O)C(C)C` (Stearoyl-LVRPLAL-NH2), the IC50 (Influenza A virus) was 101 µM and the IC50 (H3N2 subtype) was 6.4 µM.

With `CC(=O)N[C@H]1[C@H]([C@H](O)[C@H](O)CO)O[C@@](O[C@H]2[C@@H](O)[C@@H](CO)O[C@@H](O[C@H]3[C@H](O)[C@@H](O)[C@H](O)O[C@@H]3CO)[C@@H]2O)(C(=O)O)C[C@@H]1O` the Kd [8] was 3200 µM, the Kd [4] was > 400 µM and the Kd [6] was > 200 µM.

With `CC(C)C[C@H](NC(=O)[C@H](C)NC(=O)[C@H](CC(C)C)NC(=O)[C@@H]1CCCN1C(=O)[C@H](CCCNC(=N)N)NC(=O)[C@H](CCC(N)=O)NC(=O)[C@@H](N)CC(C)C)C(=O)N[C@@H](CCCCNC(=O)CCCC[C@@H]1SC[C@H]2NC(=O)N[C@@H]12)C(N)=O` (H-LQRPLALK(Biotinyl(3aR,4S,6aS))-NH2) the Activity [1] was “Active”.

With `CC(C)C[C@H](NC(=O)[C@@H]1CCCN1C(=O)[C@H](CCCNC(=N)N)NC(=O)[C@@H](NC(=O)[C@@H](N)CC(C)C)C(C)C)C(=O)N[C@@H](C)C(=O)N[C@@H](C)C(=O)N[C@@H](CCCCNC(=O)CCCC[C@@H]1SC[C@H]2NC(=O)N[C@@H]12)C(N)=O` (H-LVRPLAAK(Biotinyl(3aR,4S,6aS))-NH2) the Activity [2] was “Active” and the Activity [3] was “inactive”.

In the case of `CC(C)C[C@H](NC(=O)[C@H](C)NC(=O)[C@H](CC(C)C)NC(=O)[C@@H]1CCCN1C(=O)[C@H](CC(=O)O)NC(=O)[C@@H](NC(=O)[C@@H](N)CC(C)C)C(C)C)C(=O)N[C@@H](CCCCNC(=O)CCCC[C@@H]1SC[C@H]2NC(=O)N[C@@H]12)C(N)=O` (H-LVDPLALK(Biotinyl(3aR,4S,6aS))-NH2), the Activity [9] is reported as 19%.

In the case of `CC(C)C[C@H](NC(=O)[C@H](C)NC(=O)[C@H](CCCNC(=N)N)NC(=O)[C@@H](NC(=O)[C@@H](N)CC(C)C)C(C)C)C(=O)N[C@@H](C)C(=O)N[C@@H](CC(C)C)C(=O)N[C@@H](CCCCNC(=O)CCCC[C@@H]1SC[C@H]2NC(=O)N[C@@H]12)C(N)=O` (H-LVRALALK(Biotinyl(3aR,4S,6aS))-NH2), the Activity [1] is reported as “inactive”.

For `CC(C)C[C@H](NC(=O)[C@H](C)NC(=O)[C@H](CC(C)C)NC(=O)[C@@H]1CCCN1C(=O)[C@H](CCCNC(=N)N)NC(=O)[C@H](C)NC(=O)[C@@H](N)CC(C)C)C(=O)N[C@@H](CCCCNC(=O)CCCC[C@@H]1SC[C@H]2NC(=O)N[C@@H]12)C(N)=O` (H-LARPLALK(Biotinyl(3aR,4S,6aS))-NH2), the Activity [2] was “Active” and the Activity [3] was “inactive”.

In the case of `CC(C)C[C@H](NC(=O)[C@H](C)NC(=O)[C@H](CC(C)C)NC(=O)[C@@H]1CCCN1C(=O)[C@H](Cc1cnc[nH]1)NC(=O)[C@@H](NC(=O)[C@@H](N)CC(C)C)C(C)C)C(=O)N[C@@H](CCCCNC(=O)CCCC[C@@H]1SC[C@H]2NC(=O)N[C@@H]12)C(N)=O` (H-LVHPLALK(Biotinyl(3aR,4S,6aS))-NH2), the Activity [1] is reported as “Active”.
